Reference: patent US12673915B2, “Precursor compound of hexahydro-beta-acid component compound, feed composition and use thereof” (WISORIG TECHNOLOGIES PTE. LIMITED, priority 2020, dated 2026)

How the values were obtained:
Type in all cases: physicochemical
[1] = Thermal stability testing at 60° C. of ingredient and 1% premix (HPLC)
Description: (§1) Preparation of a sample of 1% premix of an ingredient: 1 g of an ingredient was respectively weighed out and evenly mixed with 99 g of corncob meal in a mixer to give a sample of 1% premix of an ingredient for testing.
Thermal stability testing at 60° C.: The samples of an ingredient and 1% premix thereof were respectively spread in petri dishes to form thin layers of <5 mm, and kept at 60° C. Two replications for a sample were taken in parallel on day 5 and day 10 for HPLC analysis.
(§2) 25.0 mg of an ingredient was accurately weighed out and dissolved in an appropriate amount of methanol by ultrasonication. The solution was then transferred to a volumetric flask and diluted to 25 mL with methanol to give a stock solution. The samples from the stock solution were diluted with methanol respectively to a concentration of 100 ppm, 500 ppm, and 1000 ppm of work solution, and then the working solutions were filtered by 0.22 μm organic membranes. Between the concentration of a sample and the response value of HPLC peak area thereof, the linearity was adjusted and detected to give a standard curve.
(§3) 2.3: Preparation of Sample Solution 25.0 mg of an ingredient and 2.0000 g of a sample of 1% premix thereof were respectively accurately weighed out, and dissolved in 25 mL of methanol by ultrasonication for 10 minutes. The resulting solutions were filtered by organic membranes and then analyzed by HPLC. 2.4: Testing Conditions for HPLC • Column: Symmetry Cis column (Waters; 250 mm*4.6 mm, 5 μm). • Mobile phase: 0.02% phosphoric acid:methanol=5:95 (v:v). • Wavelength: 235 nm. • Temperature of the Column: 25° C. • Injection volume: 10 μL. • Flow rate: 1 mL/min. 3: Results

[2] = Photostability testing under illumination of 4500 Lx of ingredient and 1% premix (HPLC); details: 4500 Lx
From the text: as §1
Photostability testing: The samples of an ingredient and 1% premix thereof were respectively spread in petri dishes to form thin layers of <5 mm, and kept under an illumination of 4500 Lx. Three replications for a sample were sampled in parallel on day 5 and day 10 for HPLC analysis.
as §2, §3

[3] = Long-term stability in feeds at room temperature (25° C.±2° C., RH 60%±10%; HPLC)
From the text: Feeds: ZUSF's premixed feed (A mixture of crushed Feed A and crushed Feed B at a weight ratio of 2:1, wherein Feed A was a 5.33% multi-premixed feed for piglets from ZUSF's Hao-Ru-Zhen-Jing, and B was a 2.67% multi-premixed feed for piglets from ZUSF's Hao-Ru-Zhen-Jing); creep feed for piglets from CP FEED; INSIGHTER's feed for broiler; 4% premixed feed from GUANGDONG CO-POWER.
Preparation of a sample of 1% premix of Ingredient: 1 g of an ingredient was respectively weighed out and evenly mixed with 99 g of corncob meal in a mixer to give a sample of 1% premix of an ingredient.
Preparation of a sample of 500 ppm feed of an ingredient: The sample of 1% premix of an ingredient was diluted step by step using the ZUSF's remixed feed to 5000 ppm and 500 ppm to give the sample of 500 ppm feed of an ingredient for later testing.
Preparation of a sample of 100 ppm feed of an ingredient: sample of 1% premix of an ingredient was diluted step by step using the creep feed for piglets from CP FEED to 1000 ppm and then 100 ppm to give the sample of 100 ppm feed of an ingredient for later testing.
Preparation of a sample of 100 ppm feed of an ingredient: The sample of 1% premix of an ingredient was diluted step by step using the INSIGHTER's feed for broiler to 1000 ppm and 100 ppm to give the sample of 100 ppm feed of an ingredient for later testing.
Preparation of a sample of 2000 ppm feed of an ingredient: The sample of 1% premix of an ingredient was diluted step by step using the 4% premixed feed from GUANGDONG CO-POWER to 5000 ppm and 2000 ppm to give the sample of 2000 ppm feed of an ingredient for later testing.
Method: Three replications of each feed sample were tested at the condition of 25° C.±2° C. and RH 60%±10%, wherein the replications of each feed sample were sampled in parallel for HPLC analysis on day 5, day 10, day 15, day 30, day 60, and day 90.
25.0 mg of an ingredient was accurately weighed out and dissolved in an appropriate amount of methanol or n-hexane by ultrasonication. The solution was then transferred to a volumetric flask and diluted to 50 mL to give a 500 ppm (by wt.) stock solution. The samples from the stock solution were diluted with methanol or n-hexane respectively to a concentration of 10 ppm, 25 ppm, 50 ppm, 100 ppm, and 250 ppm of work solution, and then the working solutions were filtered by 0.22 μm organic membranes. Between the concentration of a sample and the response value of HPLC peak area thereof, the linearity was adjusted and detected to give a standard curve.
5.0000 g of the samples sampled at different time intervals were respectively accurately weighed out, and dissolved in 25 mL of methanol or n-hexane by ultrasonication for 10 minutes. The resulting solutions were filtered by organic membranes and then analyzed by HPLC.
• Equipment: Waters e2695 with PDA detector. • Mobile phase: 0.02% phosphoric acid:methanol=5:95 (v:v). • Column: Symmetry Cis column (Waters; 250 mm×4.6 mm, 5 μm). • Wavelength: 235 nm. • Temperature of the Column: 25° C. • Injection volume: 10 μL. • Flow rate: 1 mL/min. Normal Phase Chromatography: • Equipment: Shimadzu LC-14C/SPD-15C. • Column: SuperSil NH2 column ([…]; 250 mm×4.6 mm). • Mobile phase: n-hexane:isopropanol=60:40 (v:v). • Wavelength: 235 nm. • Temperature of the Column: 25° C. • Injection volume: 20 μL. • Flow rate: 1 mL/min. 3: Results

[4] = 1% Premix of an ingredient (corncob meal), Day 5
[5] = 1% Premix of an ingredient (corncob meal), Day 10

Residual amount of active ingredient [1, 4]: 98.27% | Residual amount of active ingredient [1, 5]: 97.91% | Residual amount of active ingredient ([1]; Ingredient, Day 5): 99.40% | Residual amount of active ingredient ([1]; Ingredient, Day 10): 99.26% | Residual amount of active ingredient [2, 4]: 98.87% | Residual amount of active ingredient [2, 5]: 98.10% | Residual amount of active ingredient ([2]; Ingredient, Day 5): 98.90% | Residual amount of active ingredient ([2]; Ingredient, Day 10): 98.70% | Residual amount of active ingredient ([3]; 100 ppm in INSIGHTER's broiler feed, Day 5): 99.45% | Residual amount of active ingredient ([3]; 100 ppm in INSIGHTER's broiler feed, Day 15): 99.37% | Residual amount of active ingredient ([3]; 100 ppm in INSIGHTER's broiler feed, Day 30): 99.19% | Residual amount of active ingredient ([3]; 100 ppm in INSIGHTER's broiler feed, Day 60): 99.72% | Residual amount of active ingredient ([3]; 100 ppm in creep feed for piglets from CP FEED, Day 5): 100.54% | Residual amount of active ingredient ([3]; 100 ppm in creep feed for piglets from CP FEED, Day 15): 100.97% | Residual amount of active ingredient ([3]; 100 ppm in creep feed for piglets from CP FEED, Day 30): 97.62% | Residual amount of active ingredient ([3]; 100 ppm in creep feed for piglets from CP FEED, Day 60): 98.08% | Residual amount of active ingredient ([3]; 100 ppm in creep feed for piglets from CP FEED, Day 90): 96.99% | Residual amount of active ingredient ([3]; 500 ppm in ZUSF's premixed feed, Day 5): 98.36% | Residual amount of active ingredient ([3]; 500 ppm in ZUSF's premixed feed, Day 15): 96.77% | Residual amount of active ingredient ([3]; 500 ppm in ZUSF's premixed feed, Day 30): 94.17% | Residual amount of active ingredient ([3]; 500 ppm in ZUSF's premixed feed, Day 60): 95.88% | Residual amount of active ingredient ([3]; 500 ppm in ZUSF's premixed feed, Day 90): 95.73% | Residual amount of active ingredient ([3]; 2000 ppm in 4% premixed feed from GUANGDONG CO-POWER, Day 5): 97.48% | Residual amount of active ingredient ([3]; 2000 ppm in 4% premixed feed from GUANGDONG CO-POWER, Day 15): 96.12% | Residual amount of active ingredient ([3]; 2000 ppm in 4% premixed feed from GUANGDONG CO-POWER, Day 30): 96.28% | Residual amount of active ingredient ([3]; 2000 ppm in 4% premixed feed from GUANGDONG CO-POWER, Day 60): 95.87% | Residual amount of active ingredient ([3]; 2000 ppm in 4% premixed feed from GUANGDONG CO-POWER, Day 90): 95.90%
Structure (SMILES): CCC(=O)OC1=C(CCC(C)C)C(=O)C(CCC(C)C)(CCC(C)C)C(O)=C1C(=O)C(C)C [hexahydro-colupulone mono-propionate]
